Experimental data taken from patent US20020054872A1, “Peptides for the treatment of systemic lupus erythematosus and methods of treating systemic lupus erythematosus” (priority 1997, published 2002).
Residues, ends and D or L forms follow the SMILES beside them.

Columns and labels:
[1] = test system: C72 murine anti-DNA antibody; test: Direct binding ELISA of C72 to laminin peptides; set-up: species or system mouse; conditions: for binding of C72 murine anti-DNA antibody to laminin peptides: FIG. 1, C72 conditioned medium in various dilutions; for C72 Binding: direct binding ELISA test after one (1) hour
Description: (§1) The C72 murine anti-DNA antibody has been derived from (NZB×NZW)F1 lupus mice by the hybridoma technique as described in Eilat D. et al J. Immunol. […] The monoclonal anti-DNA antibodies DIL6 and B3 were derived from lupus patients by hybridoma technique as described in Ehrenstein M. R. et al J. Clin. Invest. (1994) 93 1787-1799 and Ehrenstein M. R. et al Kidney Inter. (1995) 48 705-711.
(§2) Wells were coated with 10 μg/ml of the peptides, blocked with 1% BSA (bovine serum albumin) in PBS (pH 7,4), reacted with appropriately diluted serum or urine samples or monoclonal antibodies, incubated with anti-human or anti-mouse immunoglobulin enzyme conjugated to alkaline phosphatase and detected by addition of substrate (Sigma 100 Phosphatase Substrate Tablets) and color development using an Organon Teknika Microwell System spectrometer at wavelength of 405 nm.
The interaction of the C72 murine anti-DNA antibody with laminin peptides was analyzed by ELISA as described above. The C72 conditioned medium was diluted in PBS in various dilutions.
(§3) The peptides of the present invention were tested for their ability to bind directly with C72 murine anti-DNA antibodies and B3 human anti-DNA antibodies according to the method described hereinabove.

[2] = test system: B3 human anti-DNA antibody; test: Direct binding ELISA of B3 to laminin peptides; conditions: FIGS. 3 and 4
Description: as §1, §2
(§4) The human monoclonal anti-DNA antibodies DIL 6 and B3 were derived from lupus patients by the hybridoma technique. […] In FIGS. 3 and 4, the peptides are referred to as denoted above or as follows; AS30 is R27, AS19 is R35 AS35 is R26, AS17 is R28 and AS6 is R18.
as §3

[3] = test system: human monoclonal anti-DNA antibody DIL 6; test: Direct binding ELISA of DIL6 to laminin peptides; conditions: FIGS. 3 and 4
Description: as §1, §2, §4

[4] = test system: C72 murine anti-DNA antibody; test: Competitive inhibition of C72 binding to 5200; set-up: species or system mouse; conditions: FIG. 2, incubation with inhibiting agent
Description: The binding of C72 to 5200 was tested before and after incubation with 5200, R38, R18, Heparin, DNA and DNase. […] The percent inhibition is the percent reduction of the O.D. after incubation with the inhibiting agent.

[5] = test system: murine urinary immunoglobulins; test: Binding of murine urinary immunoglobulins, direct binding ELISA; set-up: species or system mouse; conditions: MRL/lpr/lpr mice, pooled urine
Description: as §2
Thus, pooled urine from at least 5 mice (either MRL/lpr/lpr or control mice, e.g. BALB/c) was added to wells coated with R38′ (5200), R18 or DNA as described above and bound 5200 assayed by ELISA.
Each group is comprised of pooled urine.

MRL/lpr/lpr mice = test: Effect on clinical course of murine SLE (survival, renal histology); assay type: in vivo, mouse; conditions: from 6 weeks old
Description: To test whether R38 peptides can affect the course of SLE we have tested their effect on MRL/lpr/lpr mice disease. 60 μg of 5200 (R38′ alone or in peptide combinations, 30 μg of each) in 0.1 ml PBS, was injected i.p. to 6 week old female MLR/lpr/lpr mice once a week for 16 week and the mice were evaluated for survival (FIG. 8), and for renal histology. 50 μg of 5100 (R38) or 5300 (human R38) in 0.1 ml PBS, was injected i.p. to 6 week old MRL/lpr/lpr mice three times a week and the mice were evaluated for survival (FIG. 9), and for renal histology. Control mice received 0.1 ml phosphate buffer solution. Each test and control group contained 12-15 mice.
The survival of MRL/lpr/lpr mice treated with […], 5200 or 5300 was compared to that of PBS treated mice. […] In FIGS. 8 and 9 the time in days shown on the x axis relates to the age of the mice.

C72 antibody = test: Immunoabsorption of C72 on R38 column, anti-R38 ELISA; assay type: binding, mouse
Description: (§5) The R38 peptide was dissolved in the coupling buffer (0.2M NaHCO3, 0.5M NaCl, pH 8.3) in a concentration of 1 mg/ml in 5 ml coupling buffer. A 5 ml N-hydroxysuccinimide (NHS)-activated Sepharose™ High Performance Column (Pharmacia 17-0717-01) is used. The isopropanol in the column was washed out from the column with 30 ml of cold (4° C.) 1 mM HCl and 5 ml of the peptide solution was then injected onto the column with a syringe (2.5 ml/minute). The column was sealed and stood for 30 minutes at room temperature. The column was then washed with 30 ml Buffer A (0.5 M ethanolamine, 0.5 M NaCl, pH 8.3) and 30 ml Buffer B (0.5 M acetate, 0.5 M NaCl, pH 4) consecutively three times, and then with neutral pH buffer (0.05 M Na2HP04 and 0.1% NaN3).
(§6) The column was washed with 15 ml PBS (phosphate buffered saline), followed by 15 ml elution buffer (0.1 M glycine HCl) and then 50 ml PBS. The C72 antibody or the patients' plasma samples were filtered through a 0.45 microm filter. The samples were applied onto the column by a fitted syringe at a rate of 2.5 ml/min. The column was then washed with 5 ml PBS and the flow-through was applied to the column again. The binding of the samples (original and flow-through) to R38 was tested by the anti-R38 ELISA test.
(§7) In the instant example, the mouse C72 and the SLE patients' plasma were applied to the R38 column. Their anti-R38 binding was evaluated by ELISA in the original samples and in the flow-through of the column.

[6] = test system: anti-R38 antibodies in patients' plasma; test: Immunoabsorption of plasma on R38 column, anti-R38 ELISA; assay type: binding, human
Description: as §5, §6, §7

[7] = target: C72 murine anti-DNA antibody; test: competitive inhibition ELISA: C72 preincubated with peptide, binding to coated 5100 (R38)

CC(C)C[C@H](NC(=O)[C@H](CC(=O)O)NC(=O)[C@H](CC(C)C)NC(=O)[C@H](CCCNC(=N)N)NC(=O)[C@@H](NC(=O)[C@H](CCCCN)NC(=O)[C@H](Cc1ccc(O)cc1)NC(=O)CNC(=O)[C@H](CCC(=O)O)NC(=O)[C@@H](N)CCCCN)C(C)C)C(=O)N[C@@H](CC(N)=O)C(=O)N[C@H](C(=O)N[C@H](C(=O)N[C@@H](CC(C)C)C(=O)N[C@@H](CCC(=O)O)C(=O)N[C@@H](Cc1ccccc1)C(=O)N[C@@H](CCCNC(=N)N)C(=O)N[C@H](C(=O)N[C@H](C(=O)N[C@@H](CO)C(=O)N[C@@H](CCCCN)C(=O)O)[C@@H](C)O)[C@@H](C)O)[C@@H](C)O)[C@@H](C)O (stereo in doubt) [Peptide 5200]
binding of C72 murine anti-DNA antibody to laminin peptides [1]: binding | binding of B3 [2]: found to bind | binding of DIL 6 [3]: found to bind | inhibition of the binding of C72 to 5200 [4]: inhibition | Binding of murine urinary immunoglobulins to antigen [5]: 0.26 (*) O.D. at 405 nm | survival (MRL/lpr/lpr mice; 60 μg i.p. once a week for 16 week, FIG. 8): significantly higher than that of control mice

CC[C@H](C)[C@H](NC(=O)[C@H](CC(N)=O)NC(=O)[C@H](CC(C)C)NC(=O)[C@H](CC(=O)O)NC(=O)[C@H](CC(C)C)NC(=O)[C@H](CCCNC(=N)N)NC(=O)[C@@H](NC(=O)[C@H](CCCCN)NC(=O)[C@H](Cc1ccc(O)cc1)NC(=O)CNC(=O)[C@H](CCC(=O)O)NC(=O)[C@@H](N)CCCCN)C(C)C)C(=O)N[C@H](C(=O)N[C@@H](CC(C)C)C(=O)N[C@@H](CCC(=O)O)C(=O)N[C@@H](Cc1ccccc1)C(=O)N[C@@H](CCCNC(=N)N)C(=O)N[C@H](C(=O)N[C@H](C(=O)N[C@@H](CO)C(=O)N[C@@H](CCCCN)C(=O)O)[C@@H](C)O)[C@@H](C)O)[C@@H](C)O [Peptide 5100] (H-KEGYKVRLDLNITLEFRTTSK-OH; N-terminus and C-terminus assumed)
inhibition of the binding of C72 to 5200 [4]: inhibition | survival (MRL/lpr/lpr mice; 50 μg i.p. three times a week, FIG. 9): significantly higher than that of control mice | Binding to R38 (O.D.) (C72 antibody; C72, after immunoabsorption on R38 column): 0.02 O.D. | Binding to R38 (O.D.) (C72 antibody; C72, original sample): 1.96 O.D. | anti-R38 activity removed by affinity absorption on the column (C72 antibody; mouse monoclonal C72): 99% | Binding to R38 (O.D.) ([6]; Healthy donor's plasma, after immunoabsorption): 0.06 O.D. | Binding to R38 (O.D.) ([6]; Healthy donor's plasma, original sample): 0.26 O.D. | Binding to R38 (O.D.) ([6]; SLE patient 1 plasma, after immunoabsorption): 0.6 O.D. | Binding to R38 (O.D.) ([6]; SLE patient 1 plasma, original sample): 1.5 O.D. | Binding to R38 (O.D.) ([6]; SLE patient 2 plasma, after immunoabsorption): 1.6 O.D. | Binding to R38 (O.D.) ([6]; SLE patient 2 plasma, original sample): 2.3 O.D. | antibodies removed by affinity absorption on the column ([6]; human SLE patients' plasma): 30%-60%

CC[C@H](C)[C@H](NC(=O)[C@H](CC(N)=O)NC(=O)[C@H](CC(C)C)NC(=O)[C@H](CC(=O)O)NC(=O)[C@H](CC(C)C)NC(=O)[C@H](C)NC(=O)[C@@H](NC(=O)[C@H](C)NC(=O)[C@H](Cc1ccc(O)cc1)NC(=O)CNC(=O)[C@H](CCC(=O)O)NC(=O)[C@H](C)N)C(C)C)C(=O)N[C@H](C(=O)N[C@@H](CC(C)C)C(=O)N[C@@H](CCC(=O)O)C(=O)N[C@@H](Cc1ccccc1)C(=O)N[C@@H](C)C(=O)N[C@H](C(=O)N[C@H](C(=O)N[C@@H](CO)C(=O)N[C@@H](C)C(=O)O)[C@@H](C)O)[C@@H](C)O)[C@@H](C)O [Peptide 5104] (H-AEGYAVALDLNITLEFATTSA-OH; N-terminus and C-terminus assumed)
C72 Binding [1]: 0.08 O.D.

CC[C@H](C)[C@H](NC(=O)[C@H](CC(N)=O)NC(=O)[C@H](CC(C)C)NC(=O)[C@H](CC(=O)O)NC(=O)[C@H](CC(C)C)NC(=O)[C@H](CCCNC(=N)N)NC(=O)[C@@H](NC(=O)[C@H](CCCCN)NC(=O)[C@H](Cc1ccc(O)cc1)NC(=O)CNC(=O)[C@H](CCC(=O)O)NC(=O)[C@@H](N)CCCCN)C(C)C)C(=O)N[C@H](C(=O)N[C@@H](CC(C)C)C(=O)N[C@@H](C)C(=O)N[C@@H](Cc1ccccc1)C(=O)N[C@@H](CCCNC(=N)N)C(=O)N[C@H](C(=O)N[C@H](C(=O)N[C@@H](CO)C(=O)N[C@@H](CCCCN)C(=O)O)[C@@H](C)O)[C@@H](C)O)[C@@H](C)O [Peptide 5110] (H-KEGYKVRLDLNITLAFRTTSK-OH; N-terminus and C-terminus assumed)
C72 Binding [1]: 2.5 O.D.

DNA [reference compound]
inhibition of the binding of C72 to 5200 [4]: inhibition

DNase [reference compound]
inhibition of the binding of C72 to 5200 [4]: not by a control peptide or treatment with DNase

KATPMLKMRTSFHGCIK [Peptide R37, residues 2615-2631 of mouse laminin α chain]
binding of C72 murine anti-DNA antibody to laminin peptides [1]: binding

KQNCLSSRASFRGCVRNLRLSR [Peptide R30, residues 3011-3032 of mouse laminin α chain]
binding of C72 murine anti-DNA antibody to laminin peptides [1]: binding

heparin [reference compound]
inhibition of the binding of C72 to 5200 [4]: inhibition

B1: R38 peptide (5100), mouse laminin alpha chain residues 2890-2910 (peptide)
peptide: KEGYKVRLDLNITLEFRTTSK
IC50 [7]: 10 µg/mL

B2: 5200 peptide, mouse R38 analog (peptide)
peptide: KEGYKVRLDLNTTLEFRTTSK
IC50 [7]: 10 µg/mL

B3: 5101 peptide, Res. 1-16 of 5100 (peptide)
peptide: KEGYKVRLDLNITLEF
IC50 [7]: 5 µg/mL

B4: 5102 peptide, Res. 6-17 of 5100 (peptide)
peptide: VRLDLNITLEFR
IC50 [7]: 30 µg/mL

B5: 5106 peptide, charge subst. to neg. at 5100 a.a. 7 (peptide)
peptide: KEGYKVELDLNITLEFRTTSK
IC50 [7]: 2.5 µg/mL

B6: 5107 peptide, charge subst. to neg. at 5100 a.a. 17 (peptide)
peptide: KEGYKVRLDLNITLEFETTSK
IC50 [7]: 85 µg/mL

B7: 5108 peptide, Ala subst. of 5100 at all negative a.a. (peptide)
peptide: KAGYKVRLALNITLAFRTTSK
IC50 [7]: 2 µg/mL

B8: 5109 peptide, Ala subst. of 5100 a.a. 9 (peptide)
peptide: KEGYKVRLALNITLEFRTTSK
IC50 [7]: 0.7 µg/mL

B9: 5110 peptide, Ala subst. of 5100 a.a. 15 (peptide)
peptide: KEGYKVRLDLNITLAFRTTSK
IC50 [7]: 0.7 µg/mL
